The source of these data is patent publication US20220112445A1 (priority 2019, published 2022).

Like-named read-outs stand apart in the source and are kept apart here.

Test [1] concerns Bacillus subtilis subsp. globigii. The conditions noted are these: cited from earlier work.
The test system of another test is Bacillus subtilis spores. The conditions noted are these: 20 mg/I hydrogen peroxide for 60 minutes; cited from earlier work.
Test [2] deals with Bacillus spores. The conditions noted are these: cited from earlier work.
Test [3] deals with Bacillus spores. The method, then:
Other embodiments of the treatment formula were also tested using varying amounts of hydrogen peroxide.

Turning to `OO` [H2O2, hydrogen peroxide], the “effectiveness against Bacillus subtilis subsp. globigii” value in test [1] (10% hydrogen peroxide at room temperature) was “ineffective”. In test [1] (high temperature (80° C.)), the “concentration required for the destruction of these spores” value is 35%. For the same compound, the “kill of Bacillus subtilis spores” value with Bacillus subtilis spores is given as “no kill”. Also, the concentration exponent entry in the test with Bacillus spores [2] (25° C., levels of between 10 and 20% (w/v)) is “about 1.5”. Further, the “bactericidal / sporicidal activity” value in the test on Bacillus spores [2] (concentration of 6% (w/vol)) is “bactericidal, but only slowly sporicidal”. For the same compound, the “Spore Survival 5 Minutes” value in the test on Bacillus spores [3] (0.285 Percent H2O2, 5 minutes after mixing) is listed as “Excellent”; with Bacillus spores [3] (0.71 Percent H2O2, 5 minutes after mixing), “Excellent”; in the test on Bacillus spores [3] (1.43 Percent H2O2, 5 minutes after mixing), 0. For the same compound, the “Spore Survival 2 Hours” value is “Excellent” with Bacillus spores [3] (0.285 Percent H2O2, 2 hours after mixing); “Good” in the test on Bacillus spores [3] (0.71 Percent H2O2, 2 hours after mixing); 0 in the test with Bacillus spores [3] (1.43 Percent H2O2, 2 hours after mixing). In addition, the “Spore Survival 4 Hours” value was “Excellent” in the test on Bacillus spores [3] (0.285 Percent H2O2, 4 hours after mixing); “Fair” in the test on Bacillus spores [3] (0.71 Percent H2O2, 4 hours after mixing); 0 in the test with Bacillus spores [3] (1.43 Percent H2O2, 4 hours after mixing). Also, the “Spore Survival 6 Hours” value with Bacillus spores [3] (0.285 Percent H2O2, 6 hours after mixing) is “Excellent”; in the test with Bacillus spores [3] (0.71 Percent H2O2, 6 hours after mixing), “Fair”; in the test on Bacillus spores [3] (1.43 Percent H2O2, 6 hours after mixing), 0. For the same compound, the “Spore Survival 24 Hours” value in the test with Bacillus spores [3] (0.285 Percent H2O2, 24 hours after mixing) is listed as “Excellent”; with Bacillus spores [3] (0.71 Percent H2O2, 24 hours after mixing), “Poor”; in the test on Bacillus spores [3] (1.43 Percent H2O2, 24 hours after mixing) it was 0. Besides, the spore viability result in the test with Bacillus spores [3] (1.43% hydrogen peroxide level) is on record as “not viable”.
